According to article PMC7297445, “Pharmacokinetic/Pharmacodynamic Determination and Preclinical Pharmacokinetics of the β-Lactamase Inhibitor ETX1317 and Its Orally Available Prodrug ETX0282” (ACS Infectious Diseases, 2020):
Read-outs that look alike come from different tables or passages of the source.

Assays:
Plasma protein binding [1] = format: in vitro ADME, mouse
Protocol: (§1) Plasma protein binding was determined by rapid equilibrium dialysis. Plasma was freshly prepared from blood samples drawn in to EDTA (anticoagulant) containing tubes. Plasma was prepared using a table-top centrifuge and spun per instruction of the tube manufacturer and specifications (Beckton, Dickinson and Company, Franklin Lakes, NJ) and placed on ice prior to use.
(§2) Pooled plasma samples were centrifuged at 2000 rpm (approximately 1400g) for 15 min at 4 °C to remove debris. Approximately 90% of the clear supernatant fraction was transferred to a separate tube. Samples (500 μL) were then spiked with a 100× stock solution 100 μM, 0.5 mM, and 10 mM ETX1317 in DMSO respectively for 1, 5, and 100 μM final concentrations, transferred to the top of the filter chambers, and allowed to equilibrate for 15 min prior to centrifugation. The filtrate tubes were centrifuged at 14000g for 15 min at 4 °C. Next, 50 μL of the filtrate was precipitated with 300 μL of acetonitrile containing 250 ng/mL of carbutamide as the internal standard and the samples were analyzed by LC/MS/MS analysis.

Plasma protein binding [2] = format: in vitro ADME, rat
Protocol: as §1, §2

[3] = Intravenous pharmacokinetics of ETX1317; format: in vivo, monkey
Protocol: Intravenous pharmacokinetics of ETX1317 investigated in jugular vein cannulated male Sprague–Dawley rats (Charles River Laboratories, n = 3/route) at a dose of 10 mg/kg formulated in 0.9% saline. Oral pharmacokinetics of ETX0282 was evaluated at a 10 mg/kg equivalent dose of ETX1317 formulated in 25:75 PEG 400:WFI. The pH of each formulation was verified to fall within a range of 4–7 and were confirmed to be in solution prior to dosing. Potency was verified by LC/MS/MS. Dose volumes were 5 and 10 mL/kg for ETX1317(i.v.) and ETX0282(p.o.), respectively for rats. In both dog (male, 3/route) and monkey (male, 3/route) studies, i.v. and p.o. doses were formulated on 25:75 PEG 400:WFI (pH ∼5) and administered at a dose of ∼1 mg/kg. Dose volume was 1 mL/kg for both routes in dogs and monkeys with the i.v. dose infused over 15 min. For oral doses, gavage tubes were flushed with 10 mL after administration of the dose. i.v. doses were sterile-filtered through 0.22 μm PVDF membrane prior to administration into the cephalic vein.
Blood sampling (∼1 mL) for dogs and monkeys was carried out via venipuncture of the jugular vein at the following time points:
i.v.: pre-dose, 0.083, 0.25 (prior to end of infusion), 0.5, 1, 1.5, 2, 4, 6, 8, 12, and 24 h post-dose
Blood samples were centrifuged at 3200 rpm for 10 min at approximately 5 °C. Plasma samples (500 μL) were transferred to 96-well plate tubes (MatrixTech, 0.5 mL). An equal amount (500 μL) of SIGMAFAST protease inhibitor solution (1 tablet dissolved in 10 mL distilled water, Sigma-Aldrich Part No. S8820) was added as a preservative to the 96-well plate tubes resulting in a 1:1 dilution. Diluted plasma samples were stored at −80 ± 10 °C.
Urine collection was collected directly into Nalgene bottles placed under metabolism cages with frozen ice packs to chill urine over the collection interval. Urine was collected 0–12, and 12–24 h post-dose. Following collection of each urine sample, the total urine weight was recorded and 3 mL aliquots were retained for LC/MS/MS analysis.
Non-compartmental analysis of time vs concentration data for ETX1317, ETX0282, CPD, and CPDP was completed using WinNonlin 8.1 (Pharsite Corporation, Mountain View CA). The maximum concentration (Cmax) was the highest observed concentration; Tmax was the earliest time at which Cmax occurred; and the elimination half-life was estimated as ln 2/kel, where kel is the elimination rate constant derived from the slope of the log concentration versus time profile. The area under the concentration–time curve from 0 h to the last time point (AUC0-tlast) was calculated by linear trapezoidal approximation. Clearance (CL) was estimated as Dose/AUC0-tlast and the steady state volume of distribution (Vd,ss) was estimated as CL* MRT, where MRT = AUMC/AUC (MRT = mean residence time and AUMC = area under the moment curve). Oral bioavailability (F) was determined from ETX1317 concentrations and normalizing doses to free acid equivalence, where F = AUCp.o.*(dosei.v.)/AUCi.v.*(dosep.o.).

[4] = Human PK prediction (allometric scaling); conditions: for CL/F / V/F: predicted human
From the text: The methodology utilized for prediction of human PK of ETX1317 was consistent with methods used in support of similar chemotypes such as avibactam and ETX2514.[43] Human predictions for volume of distribution (Vd,ss) and clearance (CL) were within 2-fold of observed mean data obtained in Phase 1 studies, with renal clearance as the predominant clearance mechanism.[44],[45] Pharmacokinetic and excretion data from rats, dogs, and monkeys were used collectively for the projection of ETX1317 PK. Liver S9 incubations were also performed across all species (including human) to confirm consistent conversion of ETX0282 to ETX1317 at projected dose levels of ETX0282.[42] Human PK prediction of ETX1317 was completed using single species allometry for volume of distribution from dog PK and dog and monkey single species scaling using liver blood flow to predict non-renal clearance (CLNR).[46] […] While urinary excretion of ETX1317 was lower in dogs relative to monkeys and rats, human renal clearance (CLR) was predicted using dog-human renal correlation,[47] as this method has been highly predictive for compounds that are generally eliminated via renal excretion. The elimination half-life was estimated based upon the combined use of predicted parameters for clearance and volume of distribution, where T1/2 = ln 2*Vd,ss/CLtotal. Allometric scaling predicted human Vd,ss of 0.35 L/kg.
Based upon the non-clinical PK data, a range of 60–80% bioavailability and a moderate absorption rate of 0.5–1.0 h^–1 have been considered for humans. In consideration of these predicted parameters, mean percent fT > CT of 1 μg/mL (2× MIC of 0.5 μg/mL) estimates for a 500 mg ETX1317 equiv q12h dose of ETX0282 are summarized in Table S3.

[5] = male, monkey, plasma, iv, i.v. 0.87 mg/kg

With `CC1=C[C@@H](C(N)=O)N2C[C@@H]1N(O[C@H](F)C(=O)O)C2=O` [ETX1317] the Proportion unbound (Plasma protein binding [1]; 1 µM) was 88%, the Proportion unbound (Plasma protein binding [1]; 5 µM) was 100% and the Proportion unbound (Plasma protein binding [1]; 100 µM) was 90%. For the same molecule, the fraction unbound at 15 min (Plasma protein binding [1]; mouse plasma, read-out: percent unbound) was 0.93, the Proportion unbound (Plasma protein binding [2]; 1 µM) was 94% and the Proportion unbound (Plasma protein binding [2]; 5 µM) was 97%. The Proportion unbound (Plasma protein binding [2]; 100 µM) was 83%, the “renal clearance as % of total clearance” value ([3]; based upon excretion in the urine, range 23–63%) was roughly 40% and the AUC [3, 5] was 2680 ± 210 ng·h/mL. It also gave a Cmax [3, 5] of 3120 ± 230 ng/mL, a half-life [3, 5] of 1.1 ± 0.1 h and a clearance ([3]; male, monkey, plasma, iv, i.v. 0.87 mg/kg, read-out: CL) of 5.7 ± 0.7 mL/min/kg. The Vd ([3]; male, monkey, plasma, iv, i.v. 0.87 mg/kg, read-out: Vd,ss) was 0.31 ± 0.02 L/kg, the clearance ([3]; male, monkey, urine and plasma, iv, i.v. 0.87 mg/kg, read-out: renal CL) was 2.2 mL/min/kg and the predicted human half-life ([4]; T1/2 = ln 2*Vd,ss/CLtotal) was 1.2 to 1.6 h. The CL/F ([4]; F% 60) was 17.6 to 23.7 L/h, the V/F ([4]; F% 60) was 41 L and the CL/F ([4]; F% 70) was 15.1 to 20.3 L/h. It also gave a V/F ([4]; F% 70) of 35 L, a CL/F ([4]; F% 80) of 13.2 to 17.8 L/h and a V/F ([4]; F% 80) of 31 L.
